# Values of other authors, collected in patent US9688630B2, “3,3′-disubstituted indolines as inhibitors of cholesterol ester transfer protein” (Merck Sharp & Dohme Corp., priority 2013, dated 2017).
# Conditions: torcetrapib and atorvastatin concomitantly, compared with atorvastatin alone; cited from earlier work
smiles,measurement,value
CCOC(=O)N1c2ccc(C(F)(F)F)cc2[C@@H](N(Cc2cc(C(F)(F)F)cc(C(F)(F)F)c2)C(=O)OC)C[C@H]1CC [torcetrapib],incidence of mortality,higher incidence of mortality
